From paper PMC4452638, “Synthesis and preclinical evaluation of DOTAGA-conjugated PSMA ligands for functional imaging and endoradiotherapy of prostate cancer” (EJNMMI Research, 2014)
Values belong to the compound of their own block, whether it stands above or below them.

Tests used:
[1] = biological target: T1, PSMA (Homo sapiens, UniProt Q04609); assay: Competitive PSMA binding assay on LNCaP cells with ([125I]I-BA)KuE as radioligand; conditions: LNCaP cells 150,000/well, ([125I]I-BA)KuE c = 0.2 nM, HBSS (1% BSA), 4°C, 1 h, mean ± SD (n = 3); read-out: IC50 (PSMA affinity)
T1 construct: host or cells: LNCaP human prostate carcinoma cells
T1 sequence (Q04609 whole entry): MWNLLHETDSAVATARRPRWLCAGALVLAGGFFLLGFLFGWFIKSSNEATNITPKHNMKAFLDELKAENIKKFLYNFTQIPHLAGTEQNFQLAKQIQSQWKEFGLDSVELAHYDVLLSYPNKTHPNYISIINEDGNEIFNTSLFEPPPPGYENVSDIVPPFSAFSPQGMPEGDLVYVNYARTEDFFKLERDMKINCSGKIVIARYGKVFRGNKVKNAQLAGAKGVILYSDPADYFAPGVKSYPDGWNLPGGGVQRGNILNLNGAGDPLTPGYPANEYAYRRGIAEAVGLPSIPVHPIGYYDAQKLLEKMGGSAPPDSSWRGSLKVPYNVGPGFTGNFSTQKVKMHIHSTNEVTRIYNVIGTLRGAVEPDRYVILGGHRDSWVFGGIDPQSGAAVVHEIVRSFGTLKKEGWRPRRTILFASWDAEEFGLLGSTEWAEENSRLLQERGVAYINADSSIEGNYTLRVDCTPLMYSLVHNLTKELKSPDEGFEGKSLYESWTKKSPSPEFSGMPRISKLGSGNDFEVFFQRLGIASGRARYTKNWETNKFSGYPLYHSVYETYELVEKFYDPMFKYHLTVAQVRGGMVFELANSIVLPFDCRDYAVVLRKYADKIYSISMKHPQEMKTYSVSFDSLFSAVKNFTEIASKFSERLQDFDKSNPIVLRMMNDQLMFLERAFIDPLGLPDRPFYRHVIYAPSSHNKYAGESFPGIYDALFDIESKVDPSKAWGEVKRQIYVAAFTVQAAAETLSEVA
Description: (§1) Cell culture: PSMA^+ LNCaP cells (CLS: 300265) were grown in DMEM/Nutrition Mix F-12 with Glutamax-I (1:1) (Invitrogen, Life Technologies, Darmstadt, Germany) supplemented with 10% FCS. Cultures were maintained at 37°C in a 5% CO2/humidified air atmosphere. One day prior to the experiment, cells were harvested using Trypsin/EDTA (0.05% and 0.02%) in PBS, centrifuged and resuspended with culture medium. For cell counting, a Countesse automated cell counter (Invitrogen, Carlsbad, USA) was used. All in vitro binding and internalization studies were performed using live cells seeded 1 day prior to the experiment. For IC50 determination, 150,000 cells/mL were transferred to 24-well plates (1 mL/well), and for internalization studies, 125,000 cells/mL were transferred into PLL-coated 24-well plates.
Then, 25 μL/well of either HBSS (1% BSA; control) or of solutions containing the respective unlabelled ligand of interest in increasing concentrations (10^-10-10^-4 M in HBSS (1% BSA)) was added, followed by the addition of 25 μL of ([^125I]I-BA)KuE in HBSS (1% BSA). Experiments were carried out in triplicate for each concentration. The final radioligand concentration was 0.2 nM in all binding assays. Cells were incubated on ice for 60 min. Incubation was terminated by the removal of the incubation medium. Cells were thoroughly rinsed with 250 μL of HBSS. The wash medium was combined with the supernatant of the previous step. This fraction represents the amount of free radioligand. Cells were then lysed using 250 μL of 1 N NaOH, the lysate was transferred to vials and combined with 250 μL of HBSS used for rinsing the wells. Quantification of the amount of free and bound activity was performed in a γ-counter.
The PSMA binding affinities were determined in a competitive binding assay using LNCaP human prostate carcinoma cells and the known high affinity PSMA ligand ([^125I]I-BA)KuE [10] (c = 0.2 nM) as the radioligand. The IC50 values for the metal-free PSMA-inhibiting compounds and their respective ^natGa and ^natLu complexes are summarized in Table 1. HBED-CC-Ahx-KuE and [^natGa]HBED-CC-Ahx-KuE [12] were included in this study as reference compounds.

[2] = tested on: PSMA-expressing LNCaP cells; assay: Internalization studies / cell binding in LNCaP cells; assay type: cell-based, human; conditions: 37°C, 1 h, 125,000 cells/well, corrected for unspecific binding
Description: as §1
Internalization studies: The culture medium was removed, and the cells were washed once with 500 μL DMEM-F12 (5% BSA) before being left to equilibrate in 200 μL DMEM-F12 (5% BSA) at 37°C for a minimum of 15 min. Then, 25 μL (per well) of either DMEM-F12 (5% BSA) or of a 100-μM PMPA solution (blocking) was added, followed by the addition of 25 μL of ^68Ga/^177Lu-labelled PSMA ligand. The final radioligand concentration was 0.2/0.5 nM in all internalization assays. To determine internalization kinetics, cells were then incubated at 37°C for 5, 15, 30 and 60 min, respectively. Experiments were carried out in triplicate for each time point (control and blocking). Incubation was terminated by placing the plate on ice for approximately 1 min and by subsequent removal of the incubation medium. Cells were thoroughly rinsed with 250 μL of PBS. The wash medium was combined with the supernatant of the previous step. This fraction represents the amount of free radioligand. To remove receptor surface bound radioactivity, the cells were then incubated for 10 min with 250 μL of ice cold PMPA solution (10 μM in PBS). After removal of the supernatant, the cells were thoroughly rinsed with another 250 μL of ice cold PBS. Both fractions were combined. The internalized activity was released by incubation with 250 μL of 1 N NaOH, transferred to vials and combined with 250 μL of 1 N NaOH used for rinsing the wells. Quantification of the amount of free, PMPA-releasable and internalized activity was performed in a γ-counter.
The cellular uptake and internalization kinetics of the different ^68Ga- and ^177Lu-labelled PSMA ligands was determined using PSMA-expressing LNCaP cells. In the case of the ^68Ga-labelled compounds, the final peptide concentration in the assays was 0.2 nM. […] All internalization studies were accompanied by reference studies using ([^125I]I-BA)KuE (c = 0.2 nM). This experimental setup allows data normalization and eliminates the influence of cell count and cell viability on absolute cellular tracer uptake. […] Furthermore, to be able to discriminate between total cellular activity (sum of membrane associated and internalized activity) and internalized activity, all incubations were followed by a washing step with 10 μM PMPA at 4°C to remove specifically cell-surface bound radioligand by displacement.

[3] = Determination of lipophilicity (shake flask, n-octanol/PBS); assay type: physicochemical
Description: To a solution of 0.5 to 1 MBq of radiolabelled peptide in 500 μl of phosphate-buffered saline (PBS, pH 7.4), 500 μl of n-octanol was added (n = 6). Vials were vortexed vigorously for 3 min. To achieve quantitative phase separation, the vials were centrifuged at 6,000 g for 5 min in a Biofuge 15 (Heraeus Sepatech, Osterode, Germany). The activity concentrations in 100 μl-samples of both the aqueous and the organic phase were measured in a γ-counter. Both the partition coefficient P(o/w), which is defined as the molar concentration ratio of a single species A between n-octanol and water at equilibrium, and logP(o/w), which is an important parameter used to characterize lipophilicity of a compound, were calculated.
The partition coefficient logP between n-octanol and PBS was determined for the compounds listed in Table 3 using the shake flask method. All compounds are highly hydrophilic, with the DOTAGA compounds being up to one order of magnitude more hydrophilic than the corresponding DOTA analogues. Amongst all compounds tested, [^68Ga]HBED-CC-Ahx-KuE was the most hydrophilic compound.

[4] = Stability in human serum (TLC analysis); assay type: in vitro ADME; conditions: 37°C, 48 h
Description: (§2) ^177Lu-10 and ^177Lu-11 were incubated in 80 μL of human serum (37°C) and 80 μL 0.4 M DTPA solution (RT), respectively and after 1, 24 and 48 h, the stability was determined by TLC analysis. The ^68Ga-labelled tracers (40 to 45 MBq) were injected into the tail vein of CD-1 nu/nu mice. The animals were sacrificed after 30 min, and urine, blood and kidney samples were taken. The kidney was frozen in liquid nitrogen, homogenized with a ball mill and extracted with 0.2 to 1 mL PBS containing 200 nmol 2-(phosphonomethyl)pentane-1,5-dioic acid (PMPA). The suspension was first centrifuged (15,000 g), and after ultrafiltration, the extracts were analysed by RP-HPLC. The blood samples were centrifuged to separate the plasma from the blood cells. Plasma proteins were removed by precipitation with acetonitrile (10 min, 4°C) and subsequent centrifugation and ultrafiltration. The blood extract was also analysed by RP-HPLC.
(§3) The stability of ^177Lu-10 and ^177Lu-11 was investigated by incubation in human serum for 48 h at 37°C and by DTPA challenge (0.4 M, RT, 48 h) and subsequent TLC analysis. Release of ^177Lu^III from the complexes was not observed under the respective experimental conditions in the examined time frame.

[5] = DTPA challenge (TLC analysis); assay type: physicochemical; conditions: DTPA challenge 0.4 M, RT, 48 h
Description: as §2, §3

[6] = tested on: LNCaP tumour xenograft; assay: Biodistribution in LNCaP-tumour-bearing mice; assay type: in vivo; conditions: LNCaP-tumour bearing CD-1 nu/nu mice, 1 h p.i.
Description: All animal experiments were conducted in accordance with general animal welfare regulations in Germany (Deutsches Tierschutzgesetz, approval #55.2-1-54-2532-71-13). The prostate cancer cell line LNCaP was suspended 1/1 in serum-free medium and Matrigel (BD Biosciences, Germany) and approximately 10^7 cells in 200 μL were inoculated subcutaneously on the right shoulder of 6 to 8 weeks old CD-1 nu/nu mice (Charles River Laboratories). Tumours were grown for 2 to 4 weeks (males) and 4 to 6 weeks (females) to reach 4 to 8 mm in diameter.
Biodistribution: The ^68Ga-labelled PSMA ligands (approximately 7 to 15 MBq, 0.1 to 0.2 nmol) were injected into the tail vein of isoflurane anesthetized animals. The organ distribution was examined 1 h p.i. and quantified in a γ-counter.
A comparison of the biodistribution of compounds ^68Ga-11, ^68Ga-12 and the reference [^68Ga]HBED-CC-Ahx-KuE in LNCaP-tumour-bearing CD-1 nu/nu mice (1 h p.i.) is shown in Figure 7.

[7] = In vivo metabolite analysis by radio-HPLC; conditions: CD-1 nu/nu mice, 0.5 h p.i.
Description: as §2
To investigate the influence of the amino acid composition of the spacer (KFF vs kff) on the metabolic stability in vivo, tissue homogenates and body fluids of mice injected with ^68Ga-11 and ^68Ga-12 were analysed by radio-HPLC. Extraction efficiencies from the blood and from the kidney were 56% and 43% for ^68Ga-11 and 61% and 62% for ^68Ga-12, respectively.

[8] = n-octanol/PBS pH 7.4, mean ± SD (n = 6)

Compound: [^natLu]DOTAGA-FFK(Sub-KuE) [^natLu-11]
IC50 [1]: 15.1 ± 1.5 nM

Compound: [^natLu]DOTAGA-ffk(Sub-KuE) [^natLu-12]
IC50 [1]: 13.1 ± 2.2 nM

Compound: [^natGa]DOTAGA-FFK(Sub-KuE) [^natGa-11]
IC50 [1]: 12.1 ± 3.9 nM

Compound: [^68Ga]DOTA-FFK(Sub-KuE) [^68Ga-10, reference compound]
Internalization (1 h) in % of ([125I]I-BA)KuE ([2]; 68Ga compounds, c = 0.2 nM): 14.6 ± 0.8%
log P (o/w) [3, 8]: −3.1 ± 0.2

Compound: [^177Lu]DOTAGA-FFK(Sub-KuE) [^177Lu-11]
Internalization (1 h) in % of ([125I]I-BA)KuE ([2]; 177Lu compounds, c = 0.5 nM): 36.1 ± 1.1%
log P (o/w) [3, 8]: −3.9 ± 0.1
Release of 177Lu(III) from the complex [4]: not observed
Release of 177Lu(III) from the complex [5]: not observed

Compound: O=C(O)CCc1ccc(O)c(CN(CCN(CC(=O)O)Cc2cc(CCC(=O)NCCCCCC(=O)NCCCC[C@H](NC(=O)N[C@@H](CCC(=O)O)C(=O)O)C(=O)O)ccc2O)CC(=O)O)c1 [HBED-CC-Ahx-KuE, reference compound]
IC50 [1]: 5.7 ± 0.5 nM

Compound: [^natGa]DOTAGA-ffk(Sub-KuE) [^natGa-12]
IC50 [1]: 15.9 ± 0.5 nM

Compound: [^68Ga]DOTAGA-FFK(Sub-KuE) [^68Ga-11]
Internalization (1 h) in % of ([125I]I-BA)KuE ([2]; 68Ga compounds, c = 0.2 nM): 28.4 ± 0.7%
log P (o/w) [3, 8]: −3.6 ± 0.1
Intact tracer in blood [7]: 21%

Compound: [^177Lu]DOTAGA-ffk(Sub-KuE) [^177Lu-12]
Internalization (1 h) in % of ([125I]I-BA)KuE ([2]; 177Lu compounds, c = 0.5 nM): 44.4 ± 1.8%
log P (o/w) ([3]; n-octanol/PBS, listed for 11/12 but determined for the FFK analogue 11 only (footnote a)): −3.9 ± 0.1

Compound: O=C(O)CC[C@H](NC(=O)N[C@@H](CCCCNC(=O)CCCCCCC(=O)NCCCC[C@H](NC(=O)[C@H](Cc1ccccc1)NC(=O)[C@H](Cc1ccccc1)NC(=O)CN1CCN(CC(=O)O)CCN(CC(=O)O)CCN(CC(=O)O)CC1)C(=O)O)C(=O)O)C(=O)O [compound 10, DOTA-FFK(Sub-KuE), reference compound]
IC50 [1]: 13.1 ± 2.3 nM

Second part, led by results:

IC50 [1]: 54.7 ± 6.1 nM
Compound: [^natLu]DOTA-FFK(Sub-KuE) [^natLu-10, reference compound]

IC50 [1]: 10.2 ± 1.5 nM
Compound: O=C(O)CC[C@H](NC(=O)N[C@@H](CCCCNC(=O)CCCCCCC(=O)NCCCC[C@H](NC(=O)[C@H](Cc1ccccc1)NC(=O)[C@H](Cc1ccccc1)NC(=O)CCC(C(=O)O)N1CCN(CC(=O)O)CCN(CC(=O)O)CCN(CC(=O)O)CC1)C(=O)O)C(=O)O)C(=O)O (some centres unmarked) [compound 11, DOTAGA-FFK(Sub-KuE)]

IC50 [1]: 29.5 ± 6.6 nM
Compound: [^natGa]DOTA-FFK(Sub-KuE) [^natGa-10, reference compound]

log P (o/w) [3, 8]: −2.7 ± 0.02
Release of 177Lu(III) from the complex [4]: not observed
Release of 177Lu(III) from the complex [5]: not observed
Compound: [^177Lu]DOTA-FFK(Sub-KuE) [^177Lu-10, reference compound]
Internalization (1 h) in % of ([125I]I-BA)KuE ([2]; 177Lu compounds, c = 0.5 nM): 19.3 ± 0.9%

Tracer uptake into liver [6]: 0.5 ± 0.1 % ID/g
Tracer uptake into lung [6]: 1.9 ± 0.4 % ID/g
Tracer uptake into pancreas [6]: 0.9 ± 0.2 % ID/g
Tracer uptake into spleen [6]: 14.7 ± 2.6 % ID/g
Tumour-to-blood ratio [6]: 12.5 ± 0.7
Tumour-to-skeletal muscle ratio [6]: 16.2 ± 0.1
Uptake into LNCaP tumour xenograft [6]: 4.7 ± 0.2 % ID/g
log P (o/w) [3, 8]: −4.1 ± 0.1
Compound: [^68Ga]HBED-CC-Ahx-KuE [reference compound]
Internalization (1 h) in % of ([125I]I-BA)KuE ([2]; 68Ga compounds, c = 0.2 nM): 91.1 ± 1.7%

IC50 [1]: 6.1 ± 0.8 nM
Compound: [^natGa]HBED-CC-Ahx-KuE [reference compound]

IC50 [1]: 13.9 ± 0.4 nM
Compound: O=C(O)CC[C@H](NC(=O)N[C@@H](CCCCNC(=O)CCCCCCC(=O)NCCCC[C@@H](NC(=O)[C@@H](Cc1ccccc1)NC(=O)[C@@H](Cc1ccccc1)NC(=O)CCC(C(=O)O)N1CCN(CC(=O)O)CCN(CC(=O)O)CCN(CC(=O)O)CC1)C(=O)O)C(=O)O)C(=O)O (some centres unmarked) [compound 12, DOTAGA-ffk(Sub-KuE)]
